Assay [1] concerns the target T1, NLRP3 inflammasome (Homo sapiens, UniProt Q96P20). In words: NLRP3 inflammasome assay, western blot (immunoblotting) of LPS+MSU-treated PMA-primed THP-1 cells. The note with it: MCC950 1 uM, RS-D7 0.1, 1 and 5 uM, FIG. 1.
Protocol: (§3) The assays were conducted using Human promonocytic leukemia THP-1 cells.
(§4) Human promonocytic leukemia THP-1 cells were cultured in RPMI and treated with Phorbol 12-myristate 13-acetate (PMA). […] The supernatant of PMA-differentiated THP-1 cells was collected at given time points after stimulation, and IL-1β level in cell culture supernatant was determined using IL-1 beta Human Uncoated ELISA Kit (Invitrogen). Supernatants and cell lysate were also evaluated by immunoblotting methods. The immunoreactive signals were developed using Immobilon Crescendo Western HRP substrate and the digitized image of the membrane was detected by ImageQuant LAS 4000mini (GE) according to the manufacturer's instructions.
Assay [2] addresses T1, NLRP3 inflammasome. Put plainly: NLRP3 inflammasome assay, IL-1β ELISA in LPS- and ATP-treated THP-1 cells. To be noted: 50 ng/mL LPS + 5 mM ATP, compared to the LPS+ATP group, MCC950 1 uM, RS-D7 0.1-5 uM, others 0.2-5 uM, FIG. 2A. (In general: ELISA stands for enzyme-linked immunosorbent assay.)
Protocol: as §3, §4
In assay [3] the test system is TgM83 mice. Put plainly: Open field task (locomotion activity) in TgM83 mouse model. It is filed as in vivo.
Assay [4] deals with T1, NLRP3 inflammasome. Put plainly: NLRP3 inflammasome assay, IL-1β ELISA in LPS- and MSU-treated THP-1 cells. The note with it: 50 ng/mL LPS + 400 ug/ml MSU, compared to the LPS+MSU group, RS-D7 0.1-5 uM, others 0.2-5 uM, FIG. 2B.
Protocol: as §3, §4
The test system of a further assay is IL-1β. In words: Inflammation cytokine ELISA in the cerebellum of TgM83 mice: IL-1β. It is filed as in vivo, mouse. To be noted: 30 mg/kg oral gavage, sacrificed after 20 minutes, P<0.05, FIG. 5A. From the text: (§1) To characterize the inflammatory response after RS-D7 treatment, the level of inflammation cytokines, including interleukin-1 beta (IL-1β), interleukin-6 (IL-6), and Tumor Necrosis Factor-α (TNF-α), were examined in the cerebellum of male TgM83 and WT littermate mice (n=5 each) using enzyme-linked immunosorbent assay (ELISA). All the animals were sacrificed after 20-minutes RS-D7 treatment and the tissue samples were taken from […] of the mouse brain from male WT littermates, TgM83 mice and TgM83 mice with RS-D7 treatment (30 mg/kg, P.O.). These samples were dissected on ice and then stored at −80° C. before use. The ELISA experiment was performed using commercial kits for IL-1β (88-7013, Invitrogen, USA), IL-6 (88-7064, Invitrogen, USA) and TNF-α (88-7324, Invitrogen, USA). Procedures were followed according to manufactures protocols. Standards and samples were run in triplicates. OD values were read at 450 nm using a microplate reader (ThermoFisher Scientific, USA). Calculation of concentrations were done according to manufactures protocol using standard curve methods.
(§2) All of the data are presented as the mean+SE of the mean (SEM). The data was analyzed with one-way ANOVA in behavioral results. A post-hoc analysis was performed with Fisher's LSD test when F values reaching significant difference. […]

Another assay relates to IL-6. In words: Inflammation cytokine ELISA in the cerebellum of TgM83 mice: IL-6. Format: in vivo, mouse. To be noted: 30 mg/kg oral gavage, sacrificed after 20 minutes, P<0.05, FIG. 5B.
Text: as §1, §2

Assay [5] has as its system TgM83 mice. In words: Rotarod task (motor coordination) in TgM83 mouse model. Format: in vivo.
The subject of another assay is TNF-α. Put plainly: Inflammation cytokine ELISA in the cerebellum of TgM83 mice: TNF-α. The note with it: 30 mg/kg oral gavage, sacrificed after 20 minutes, P<0.05, FIG. 5C. Format: in vivo, mouse.
Text: as §1, §2

T1 sequence (Q96P20 whole entry): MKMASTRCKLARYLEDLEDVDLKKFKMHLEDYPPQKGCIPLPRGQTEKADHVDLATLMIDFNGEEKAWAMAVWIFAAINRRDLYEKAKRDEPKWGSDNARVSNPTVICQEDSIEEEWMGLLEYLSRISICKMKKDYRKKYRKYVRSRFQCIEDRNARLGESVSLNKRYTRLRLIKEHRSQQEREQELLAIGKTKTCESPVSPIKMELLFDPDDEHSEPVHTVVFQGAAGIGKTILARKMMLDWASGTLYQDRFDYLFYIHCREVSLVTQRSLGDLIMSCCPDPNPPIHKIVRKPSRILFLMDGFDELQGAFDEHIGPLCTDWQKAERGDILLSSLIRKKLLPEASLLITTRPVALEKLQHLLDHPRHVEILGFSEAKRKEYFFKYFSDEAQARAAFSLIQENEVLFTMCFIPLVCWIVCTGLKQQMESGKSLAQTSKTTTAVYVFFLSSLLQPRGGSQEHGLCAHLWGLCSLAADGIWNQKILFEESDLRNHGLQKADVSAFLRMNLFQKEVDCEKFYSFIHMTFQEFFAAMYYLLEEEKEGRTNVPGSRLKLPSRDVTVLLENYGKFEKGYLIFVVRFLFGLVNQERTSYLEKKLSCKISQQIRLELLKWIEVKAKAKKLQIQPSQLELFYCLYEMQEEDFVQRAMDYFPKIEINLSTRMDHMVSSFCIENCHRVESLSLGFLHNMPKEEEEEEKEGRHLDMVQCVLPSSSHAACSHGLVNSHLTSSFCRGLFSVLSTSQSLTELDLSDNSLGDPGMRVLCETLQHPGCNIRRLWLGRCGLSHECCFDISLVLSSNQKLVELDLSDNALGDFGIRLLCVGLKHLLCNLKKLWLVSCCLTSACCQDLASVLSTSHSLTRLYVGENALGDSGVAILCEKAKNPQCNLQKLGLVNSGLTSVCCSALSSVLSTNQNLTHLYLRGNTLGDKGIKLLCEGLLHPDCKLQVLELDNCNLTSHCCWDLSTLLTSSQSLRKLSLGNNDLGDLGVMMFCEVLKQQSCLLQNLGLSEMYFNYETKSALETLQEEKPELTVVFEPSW

Turning to `COc1c(C)cnc(C[S+]([O-])c2nc3ccc(O)cc3[nH]2)c1C` (stereo not drawn) [RS-D7, 5-O-Desmethyl-Omeprazole], the “expression of IL-1β (western blot)” value on NLRP3 inflammasome [1] was “dose-dependent inhibition”. Also, at NLRP3 inflammasome [1], the “expression of caspase-1 (western blot)” value is listed as “dose-dependent inhibition”. Moreover, the “IL-1β level in cell culture supernatant (ELISA)” value on NLRP3 inflammasome [2] and at NLRP3 inflammasome [4] was “significantly lower levels” in each case. The “increase of distance moved versus TgM83 vehicle mice (rescue of hypolocomotion)” value in the assay on TgM83 mice [3] (30 mg/kg oral gavage, one hour, P<0.05) is listed as 5,007 cm. In addition, the “total distance moved in the open field test” value with TgM83 mice [3] (12-month-old, single dose 30 mg/kg PO, 1-hour period, mean±sem, TgM83 vehicle 15,472±942, WT 21,552±1,269) is 20,479±730 cm. The “IL-1β level in the cerebellum (ELISA)” value with IL-1β is “significantly inhibit the overexpression”. For the same molecule, the “IL-6 level in the cerebellum (ELISA)” value in the assay on IL-6 was “significantly inhibit the overexpression”. In the assay on TgM83 mice [5] (30 mg/kg oral gavage, P<0.05), the “prolonging of the falling latency versus TgM83 vehicle mice” value amounted to 76.8 s. Also, in the assay with TgM83 mice [5] (single dose 30 mg/kg PO, accelerating 4-40 rpm, mean±sem, TgM83 vehicle 55.3±10.4, WT 99.5±7.5), the “falling latency on the rotarod” value amounted to 132.1 ± 16.1 s. Also, the “TNF-α level in the cerebellum (ELISA)” value with TNF-α was “significantly inhibit the overexpression”.

As to `COc1c(C)cnc(CSc2nc3cc(C(=O)O)ccc3n2CCC2=CCCCC2)c1C` [compound 12083, 1-(2-(cyclohex-1-en-1-yl)ethyl)-2-(((4-methoxy-3,5-dimethylpyridin-2-yl)methyl)thio)-1H-benzo[d]imidazole-5-carboxylic acid], the “IL-1β level in cell culture supernatant (ELISA)” value on NLRP3 inflammasome [2] and on NLRP3 inflammasome [4] was “significantly lower levels” each time.

Take `COc1c(C)cnc(CSc2nc3cc(OC(=O)CNC(=O)OC(C)(C)C)ccc3[nH]2)c1C` [compound 12093, 2-(((4-methoxy-3,5-dimethylpyridin-2-yl)methyl)thio)-1H-benzo[d]imidazol-5-yl (tert-butoxycarbonyl)glycinate]: the “IL-1β level in cell culture supernatant (ELISA)” value at NLRP3 inflammasome [2] and on NLRP3 inflammasome [4] was “significantly lower levels” in each case.

The values above are taken from patent publication US20230018423A1, “BENZIMIDAZOLE DERIVATIVES FOR TREATMENT AND/OR PREVENTION OF DISEASES AND DISORDERS MEDIATED BY NLRP3” (YODA PHARMACEUTICALS INC., priority 2021, published 2023).
